{"source": "paper PMC10101151", "about": "(Bioorganic & medicinal chemistry letters, 2022)", "key": {"[1]": {"tested_on": "8 different MDR Gram-negative bacteria", "assay": "colistin MIC across the panel of strains", "type": "cell-based", "settings": "for Colistin MIC in the presence of compound, strains that contain the mcr genes: compound at 1 μg/mL"}, "P. aeruginosa AR-0239": {"tested_on": "P. aeruginosa AR-0239", "assay": "colistin MIC in absence or presence of RMA", "type": "cell-based", "settings": "for fold reduction of colistin MIC: compound at 1 μg/mL, AR-0239"}, "P. aeruginosa AR-0257": {"tested_on": "P. aeruginosa AR-0257", "assay": "colistin MIC in absence or presence of RMA", "type": "cell-based", "settings": "for fold reduction of colistin MIC: compound at 1 μg/mL, AR-0257"}, "mitochondria": {"tested_on": "mitochondria", "settings": "in vitro and in mice for 6p; cited from earlier work"}, "S. Typhimurium AR-0635": {"tested_on": "S. Typhimurium AR-0635", "assay": "colistin MIC in absence or presence of RMA", "type": "cell-based, Salmonella Typhimurium", "settings": "colistin alone; mcr-4"}, "E. coli AR-0538": {"tested_on": "E. coli AR-0538", "assay": "colistin MIC in absence or presence of RMA", "type": "cell-based", "settings": "colistin alone; mcr-2"}, "A. baumannii AR-0310": {"tested_on": "A. baumannii AR-0310", "assay": "colistin MIC in absence or presence of RMA", "type": "cell-based", "settings": "colistin alone"}, "S. Typhimurium AR-0539": {"tested_on": "S. Typhimurium AR-0539", "assay": "colistin MIC in absence or presence of RMA", "type": "cell-based, Salmonella Typhimurium", "settings": "colistin alone; mcr-3"}, "K. pneumoniae AR-0497": {"tested_on": "K. pneumoniae AR-0497", "assay": "colistin MIC in absence or presence of RMA", "type": "cell-based", "settings": "colistin alone; mcr-1"}, "E. coli AR-0493": {"tested_on": "E. coli AR-0493", "assay": "colistin MIC in absence or presence of RMA", "type": "cell-based", "settings": "colistin alone; mcr-1"}}, "data": [{"compound": "Clc1cccc(Nc2nc3nonc3nc2Nc2cccc(Cl)c2)c1", "note": "[5l]", "values": [{"measurement": "Colistin MIC in the presence of compound, strains that contain the mcr genes", "setting": "[1]", "result": "1 to 2", "unit": "µg/mL"}, {"measurement": "fold reduction of colistin MIC", "setting": "P. aeruginosa AR-0239", "result": 4, "unit": "folds"}, {"measurement": "fold reduction of colistin MIC", "setting": "P. aeruginosa AR-0257", "result": 4, "unit": "folds"}]}, {"compound": "Clc1ccc(Nc2nc3nonc3nc2Nc2ccc(Cl)cc2)cc1", "note": "[5m]", "values": [{"measurement": "Colistin MIC in the presence of compound, strains that contain the mcr genes", "setting": "[1]", "result": "1 to 2", "unit": "µg/mL"}, {"measurement": "fold reduction of colistin MIC", "setting": "P. aeruginosa AR-0239", "result": 4, "unit": "folds"}, {"measurement": "fold reduction of colistin MIC", "setting": "P. aeruginosa AR-0257", "result": 4, "unit": "folds"}]}, {"compound": "FC(F)(F)Oc1ccc(Nc2nc3nonc3nc2Nc2ccc(OC(F)(F)F)cc2)cc1", "note": "[5p]", "values": [{"measurement": "mitochondrial uncoupler activity", "setting": "mitochondria", "result": "poor uncoupler"}]}, {"compound": "Oc1nc2nonc2nc1Nc1ccc(OC(F)(F)F)cc1", "note": "[6p]", "values": [{"measurement": "mitochondrial uncoupler activity", "setting": "mitochondria", "result": "one of the most potent uncouplers"}]}, {"compound": "Colistin", "values": [{"measurement": "Colistin MIC, range over all strains", "setting": "[1]; colistin alone, 8 strains", "result": "4 to 32", "unit": "µg/mL"}, {"measurement": "Colistin MIC", "setting": "S. Typhimurium AR-0635", "result": 32, "unit": "µg/mL"}, {"measurement": "Colistin MIC", "setting": "P. aeruginosa AR-0239; colistin alone", "result": 4, "unit": "µg/mL"}, {"measurement": "Colistin MIC", "setting": "E. coli AR-0538", "result": 8, "unit": "µg/mL"}, {"measurement": "Colistin MIC", "setting": "A. baumannii AR-0310", "result": 32, "unit": "µg/mL"}, {"measurement": "Colistin MIC", "setting": "P. aeruginosa AR-0257; colistin alone", "result": 8, "unit": "µg/mL"}, {"measurement": "Colistin MIC", "setting": "S. Typhimurium AR-0539", "result": 8, "unit": "µg/mL"}, {"measurement": "Colistin MIC", "setting": "K. pneumoniae AR-0497", "result": 8, "unit": "µg/mL"}, {"measurement": "Colistin MIC", "setting": "E. coli AR-0493", "result": 8, "unit": "µg/mL"}]}]}
